Experimental data: US12428458B2, “Therapeutic agent for psoriasis” (StemRIM Inc., priority 2018, dated 2025)

Experiments:
Assay type in all cases: in vivo, C57BL/6 mice
psoriasis model mice [1] = assay: PASI score in imiquimod-induced psoriasis model mice (Example 1)
Source text: (§1) In order to induce psoriasis using imiquimod, a cream containing 5% imiquimod (Beselna Cream 5%, manufactured by Mochida Pharmaceutical Co., Ltd.) was used. Imiquimod is represented as IMQ in the drawings corresponding to the Examples of this application. A peptide consisting of amino acid residues 1-44 of the human-derived HMGB1 protein (SEQ ID NO: 1) was chemically synthesized by a solid-phase method. Hereinafter, the HMGB1 fragment peptide is referred to as the HMGB1 peptide (1-44) and is expressed as an abbreviation “1-44” in the drawings corresponding to the Examples.
(§2) C57BL/6 mice (7-week-old, female, body weight about 20 g) were prepared, and the hair on the back was removed. In order to induce psoriasis, the cream containing 5% imiquimod was applied to the dorsal skin of the mice at a dose of 1.25 g/animal/day (62.5 mg/animal/day as imiquimod) once a day for four days. In the following, the day when imiquimod was first applied is represented as “the 1st day of the start of imiquimod application (Day 1)”, and the next day onward is represented as “the Xth day from the start of imiquimod application (Day X)”. That is, the last day that imiquimod was applied was the 4th day from the start of imiquimod application (Day 4), and no application was performed on the 5th day from the start of imiquimod application (Day 5).
The psoriasis model mice produced as described above were divided into the HMGB1 peptide (1-44) administration group (n=3) and the control group (n=3). The test substance was administered by injecting an HMGB1 peptide (1-44) solution, which has been adjusted to a concentration of 1 μg/μl with saline as the vehicle, into the vein at a dose of 100 μl/day (5 mg/kg/day as the peptide dose) for three days from the 1st day of the start of imiquimod application (Day 1). […]
The degree of the symptoms of psoriasis on the dorsal skin of the mice was evaluated by the PASI score for five days from the 1st day of the start of imiquimod application. The PASI score was calculated by quantifying the degree of each of (a) erythema, (b) scaling (desquamation), and (c) thickening (infiltration) of skin using five stages, [no symptoms: 0 points, mild: 1 point, moderate: 2 points, severe: 3 points, and extremely severe: 4 points], and summing up the values of (a), (b), and (c) (minimum 0 points-maximum 12 points).
(a) The erythema score was determined by using the photographs of the back of mice shown in FIG. 1 as a criterion for each score and visually comparing them with the condition of the back of the mice to be evaluated. (b) The scaling score was determined by using the photographs of the back of mice shown in FIG. 2 as a criterion for each score and visually comparing them with the condition of the back of the mice to be evaluated. (c) The thickening score was determined as follows: Two measurement sites were determined on the back of the mice, the skin was pinched and its thickness was measured with a caliper, and the average value from the two sites was recorded daily as the skin thickness (mm). Quantification was carried out by giving 0 points when the value of skin thickness of each day relative to the skin thickness on the 1st day of the start of imiquimod application (before application) was less than 1.1, 1 point when the value was 1.1 or more to less than 1.3, 2 points when the value was 1.3 or more to less than 1.5, 3 points when the value was 1.5 or more to less than 1.7, and 4 points when the value was 1.7 or more.

[2] = test system: inflammatory cytokines (IL-6, IL-17F, and IL-22); assay: Expression levels of inflammatory cytokines in dorsal skin by quantitative PCR (Example 1); conditions: mRNA, Day 5, 5 mg/kg/day i.v. for three days, vs control group
Source text: as §1, §2
The psoriasis model mice produced as described above were divided into the HMGB1 peptide (1-44) administration group (n=3) and the control group (n=3). […]
On the 5th day from the start of imiquimod application (Day 5), the dorsal skin of the mice was collected, mRNA was extracted from the skin, and the expression levels of the inflammatory cytokines (IL-6, IL-17F, and IL-22), which are known to be involved in the pathogenesis of psoriasis, were analyzed by quantitative PCR.

[3] = test system: inflammatory cytokines (IL-1β, IL-6, IL-17A, IL-17F, and IL-22); assay: Expression levels of inflammatory cytokines in dorsal skin by quantitative PCR (Example 2); conditions: mRNA, Day 5, 5 mg/kg/day i.v. for three days, vs control group
Experimental: (§3) The drugs were prepared and the psoriasis model mice were produced in the same way as Example 1. The peptides were administered in the same way as Example 1 except that the number of mice was changed to six in both the HMGB1 peptide (1-44) administration group and the control group.
On the 5th day from the start of imiquimod application, the dorsal skin of the mice was collected, mRNA was extracted from the skin, and the expression levels of the inflammatory cytokines (IL-1β, IL-6, IL-17A, IL-17F, and IL-22), which are known to be involved in the pathogenesis of psoriasis, were analyzed by quantitative PCR.

psoriasis model mice [4] = assay: PASI score in imiquimod-induced psoriasis model mice (Example 2); conditions: 5 mg/kg/day i.v. for three days, up to Day 4, vs control group (saline), n=6
Experimental: as §3
The degree of the symptoms of psoriasis on the dorsal skin of the mice was evaluated by the PASI score for four days from the 1st day of the start of imiquimod application. The PASI score was calculated in the same manner as Example 1.

[5] = 5 mg/kg/day i.v. for three days, up to Day 5, vs control group

HMGB1 peptide (1-44): peptide consisting of amino acid residues 1-44 of the human-derived HMGB1 protein (SEQ ID NO: 1), chemically synthesized by a solid-phase method (MGKGDPKKPRGKMSSYAFFVQTCREEHKKKHPDASVNFSEFSKK)
PASI score (psoriasis model mice [1]; 5 mg/kg/day i.v. for three days from Day 1, up to Day 5, vs control group (saline), n=3): lower than those in the control group | PASI score on the 5th day from the start of imiquimod application (psoriasis model mice [1]; 5 mg/kg/day i.v. for three days, Day 5, vs control group (saline), p<0.05, 5 mg/kg/day): significantly lower than that in the control group | erythema score (psoriasis model mice [1]; [5]): lower than those in the control group | scaling score (psoriasis model mice [1]; [5]): lower than those in the control group | thickening score (psoriasis model mice [1]; [5]): lower than those in the control group | expression level of IL-6 in the skin [2]: lower than those in the control group | expression level of IL-17F in the skin [2]: lower than those in the control group | expression level of IL-22 in the skin [2]: lower than those in the control group | expression level of IL-1β in the skin [3]: lower than those in the control group | expression level of IL-6 in the skin [3]: lower than those in the control group | expression level of IL-17A in the skin [3]: lower than those in the control group | expression level of IL-17F in the skin [3]: lower than those in the control group | expression level of IL-22 in the skin [3]: lower than those in the control group | PASI score (psoriasis model mice [4]): lower than that in the control group
